Among the data in ChEMBL document CHEMBL1133275, “Synthesis of the nucleoside moiety of liposidomycins: elucidation of the pharmacophore of this family of MraY inhibitors” (Bioorg Med Chem Lett, 2000) are IC50 values, retold here.

A short description of experiment [1]: The inhibitory activity determined by using toluene-permeabilized cells of Escherichia coli and the specific nucleoside substrate of the translocase UMA5.
Experiment [2] can be described thus: Inhibitory activity of compound was determined against bacterial translocase.

In experiment [1], `NC[C@H]1O[C@@H](OC[C@H]2O[C@@H](n3ccc(=O)[nH]c3=O)[C@H](O)[C@@H]2O)[C@H](O)[C@@H]1O` displayed an IC50 of 50 µM. That is a double-digit micromolar value.
In the case of `NC[C@H]1O[C@@H](O[C@@H](CO)[C@H]2O[C@@H](n3ccc(=O)[nH]c3=O)[C@H](O)[C@@H]2O)[C@H](O)[C@@H]1O`, the IC50 in experiment [2] was 425 µM.
Same read-out and setting: for `NC[C@H]1O[C@@H](O[C@H](CO)[C@H]2O[C@@H](n3ccc(=O)[nH]c3=O)[C@H](O)[C@@H]2O)[C@H](O)[C@@H]1O` the value was 5 µM.
Take `CSCCC(NC(=O)NC(Cc1cccc(O)c1)C(=O)O)C(=O)NC(C(=O)N/C=C1/CC(O)C(N2CCC(=O)NC2=O)O1)C(C)N(C)C(=O)C(N)Cc1cccc(O)c1` (stereo not given): the half-maximal inhibitory concentration (IC50) in experiment [2] came out at 0.065 µM.
In experiment [2], `CC(=O)N[C@H]1[C@@H](O[C@@H]2O[C@H](CC(O)[C@H]3O[C@@H](n4ccc(=O)[nH]c4=O)[C@H](O)[C@@H]3O)[C@H](O)[C@H](O)[C@H]2NC(=O)/C=C/CC(C)C)O[C@H](CO)[C@@H](N)[C@@H]1O` (stereo not given in full) [TUNICAMYCIN] had an IC50 of 0.48 µM.
